Laboratory results as given in patent publication US20030134859A1 (SANKYO COMPANY, LIMITED, priority 2000, published 2003).
Read-outs that look alike come from different tables or passages of the source.

How the values were obtained:
Assay type in all cases: cell-based
[1] = test system: Mouse preadipocyte strain 3T3-L1; assay: Inhibition of differentiation as an indication of acetic acid uptake; settings: control (0.01% dimethylsulfoxide) = 100%; for activity at 0.1 µM: Mus musculus, read-out: Rate of Uptake (%) of [2-14C] acetic acid
Procedure, shortened: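 Differentiation is indexed by 1 hr [2-14C]acetic acid incorporation, measured by scintillation counting and given as uptake relative to 0.01% DMSO control (100%). Mouse 3T3-L1 preadipocytes, pre-grown 10 days, received 0.1 μM test substance throughout a 4-day insulin/IBMX/dexamethasone induction, followed by 2 days' maintenance culture.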

[2] = test system: Rat white adipocytes; assay: Stimulation of differentiation of the adipocytes (Oil Red O); settings: 100 nM test compound, 5 days, Oil Red O ABS550, control = 100%, blank = 0%, Table 7; for activity at 0.1 µM: Rattus norvegicus, Adipocyte, 120 h, read-out: Rate of Differentiation (%)
Procedure: Rat white adipocytes contained in the white adipocyte culture kit, which was purchased from HOKUDO, were used. Mediums for proliferation and for differentiation-inducing, which were contained in the white adipocyte culture kit purchased from HOKUDO, were used.
Immediately after arrival of the purchased cells, all medium for transportation was discarded and replaced with 5 ml of proliferation medium (/25 cm^2-flask) and the cells were cultured for one day. Then, a cell suspension was prepared with proliferation medium so as to be 83,000 cells/mL, and the suspension was plated into a type I 96-well collagen-coated microplate (SUMITOMO BAKELITE CO., ltd.) so as to be 5,000 cells/well (60 μL/well). For the blank, the proliferation medium without the cells was plated into the well (blank well) of each plate.
Further, 1) in the group treated with the test compound, 3 μL/well of a solution in which the test compound (100 μM) was dissolved in DMSO solution and diluted with differentiation-inducing medium by 20 times (final concentration of the test compound: 100 nM, final concentration of DMSO: 0.1% (v/v)) were added to the well where the cells were plated. 2) In the control group, 3 μL/well of DMSO solution that was diluted with differentiation-inducing medium by 20 times (final concentration of DMSO: 0.1% (v/v)) were added to the well where the cells were plated. Further, 3) in the blank group, 3 μL/well of DMSO solution that was diluted with differentiation-inducing medium by 20 times (final concentration: 0.1% (v/v)) were added to the blank well.
After culturing for 5 days, all differentiation-inducing medium was discarded and replaced with 60 μL of 10% (v/v) of formaldehyde solution (for fixation) in each well and the cells were kept stationary for 20 min at room temperature. After this the fixative solution was discarded and replaced with 60 μL of 0.2% (v/v) Triton X (Sigma-Aldrich Japan K. K.) solution in each well and kept stationary for 5 min at the room temperature. Then all Triton X solution was discarded and replaced with 60 μL of 60% (v/v) isopropanol solution containing dissolved Oil Red 0 (Sigma-Aldrich Japan K. K.) so as to be 0.3%, which was adipose tissue staining solution, and the well was left stationary for 10 min at room temperature. After the adipose tissue staining solution was discarded, the well was washed twice with 60 μL of 60% (v/v) isopropanol solution. Then, 100 μL of the DMSO were added to each well and stirred for 5 min at room temperature. The absorbance was measured at 550 nm (ABS550) with a multi-plate reader (LabsSystems), and the stained amount by Oil Red 0 was determined. The measured level at ABS550 in the control group was defined as 100%, while the level at ABS550 in the blank group was defined as 0%. The differentiation rate (%) of the adipocytes treated with the test compound was calculated.

[3] = target: T1, human PPAR γ 2 (Homo sapiens, UniProt P37231); assay: Inhibitory activity against PPAR γ transcription in the presence of agonist compound A, luciferase reporter; settings: in the presence of 10 nM compound A (agonist); MG63 cells transfected with pSG5-hPPARg and pGV-P2-PPRE; 24 hr
T1 construct: expressed in transfected cells; host or cells: human osteosarcoma MG63, transiently co-transfected with pSG5-hPPARg and the reporter pGV-P2-PPRE
T1 sequence (P37231 1-505): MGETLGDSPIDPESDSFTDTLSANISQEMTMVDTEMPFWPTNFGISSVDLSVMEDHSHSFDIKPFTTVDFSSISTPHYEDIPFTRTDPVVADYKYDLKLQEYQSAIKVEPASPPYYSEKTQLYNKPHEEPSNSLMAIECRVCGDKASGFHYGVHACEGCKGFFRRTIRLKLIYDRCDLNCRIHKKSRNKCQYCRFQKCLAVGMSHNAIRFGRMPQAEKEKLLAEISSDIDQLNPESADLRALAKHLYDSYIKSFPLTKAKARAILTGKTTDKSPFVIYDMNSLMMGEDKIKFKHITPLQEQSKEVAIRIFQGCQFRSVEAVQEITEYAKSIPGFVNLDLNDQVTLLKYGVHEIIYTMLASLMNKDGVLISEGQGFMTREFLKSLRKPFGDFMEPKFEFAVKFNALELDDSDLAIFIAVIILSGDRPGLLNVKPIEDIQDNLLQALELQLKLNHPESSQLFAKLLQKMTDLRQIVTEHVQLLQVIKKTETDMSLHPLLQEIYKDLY
Excerpt: The primers of the polymerase chain reaction (hereinafter “PCR”) were designed according to the gene sequence of human PPAR γ 2 (GenBANK accession No. D83233). […] For this, 2 kinds of polynucleotides shown in the sequence numbers 1 and 2 in the sequence table described below (hereinafter “S1” and “AS1”, respectively) were used as PCR primers.
In order to determine transcriptional activity via PPAR γ, 2 kinds of polynucleotides represented in sequence numbers 3 and 4 in the sequence table described below (hereinafter “S2” and “AS2”, respectively) were used for construction of the reporter plasmid having PPAR responsive element. The DNA fragment inserted was designed based on the gene sequence in the promoter region of rat acylCo-A oxidase (J. D. Tugwood, EMBO J., 11 (2), pp433-439 (1992)). For insertion of the DNA fragment into the reporter plasmid pGV-P2 (TOYO INK MFG CO., LTD), a NheI site and an XhoI site were added to the S2 and AS2, respectively.
Using cDNA library (Clontech) derived from human adipose tissue as a template, DNA oligomers S1 and AS1 that were synthesized in the procedure 1 as primers and Ex-Taq™ (TAKARA BIO INC.) as a thermostable DNA polymerase-PCR was carried out. […] Each cycle consisted of incubation at 94° C. for 1 min for denaturation of the template, then at 55° C. for 30 sec for annealing of DNA oligomers the PCR primer, and then at 72° C. for 30 sec for extension of the chain. The obtained DNA fragments with approximately 1500 base pairs were digested at the Bgl II sites and were inserted into BamHI sites of pSG5. Thus a human PPAR γ expression plasmid named pSG5-hPPAR g was obtained.
Vector pGV-P2 digestion products was prepared by digestion using the restriction enzymes, NheI and XhoI, and purified by 1.0% agarose-gel electrophoresis. The DNA oligomers, S2 and AS2 obtained in Procedure 2, were mixed together and were incubated in a hot bath at 94° C. for 1 min. After the annealing was partially broken, they were further incubated at 25° C. for 1 hr. Thus double-stranded DNA with annealing of S2 and AS2 was formed. Then, the terminus of the double-stranded DNA with annealing of S2 and AS2 was phosphorylated with DNA polynucleotide kinase (TOYOBO CO., LTD). After that, it was ligated to the pGV-P2 digestion products which were prepared previously using the NheI site and XhoI site. Thus the reporter plasmid pGV-P2-PPRE was obtained.
Using the plasmid obtained by the procedures 3 and 4, transformation of Escherichia coli HB-101 strain was carried out by conventional methods. HB-101 strain having the plasmid was incubated in L-broth medium (containing 10 g of trypton (Difco), 5 g of yeast extract (Difco), 5 g of sodium chloride in 1 L of aqueous solution) containing 100 μg/ml of ampicillin at 37° C. for 17 hrs. Then, each plasmid was purified by the alkaline-SDS method and employed for the gene transfection to mammalian cells. After mixing the pSG5-hPPARg, PGV-P2-PPRE and LipofectAMINE reagent (GIBCO BRL), the human osteosarcoma MG63 was transiently transfected. Then the cells were recovered. The recovered cells were plated on a 96-well plate so as to be 30,000 cells/well and cultured in a CO2 incubator (NAPCO) at 37° C. for 24 hr under the condition of 5% CO2, 95%-RH.
Ten (10) nM of the following compound A (although compound A is described here as a representative compound, the compound is not limited to compound A, if the compound exerts a PPAR r agonistic activity) and various concentrations of the test compound were added to culturing medium of the cells prepared in the Procedure 5.

| Compound | activity at 0.1 µM ([1]; 3T3-L1, 0.1 μM test substance) | activity at 0.1 µM [2] | also measured |
| --- | --- | --- | --- |
| O=C(Nc1ncc(Br)s1)c1cc([N+](=O)[O-])ccc1Cl [Example 48, N-(5-Bromothiazol-2-yl)-(2-chloro-5-nitrophenyl)carboxamide] | 70.3% | 131% | – |
| COC(=O)c1nccnc1NC(=O)c1cc([N+](=O)[O-])ccc1Cl [Example 60, N-(2-Metboxycarbonylpyrazin-3-yl)-(2-chloro-5-nitrophenyl)carboxamide] | – | – | Rate of Uptake (%) of [2-14C] acetic acid ([1]; 0.1 μM test substance): 68.8%; Rate of Differentiation (%) [2]: 110.5% |
| Cc1ccnc(NC(=O)c2cc([N+](=O)[O-])ccc2Cl)c1[N+](=O)[O-] [Example 63, N-(4-Methyl-3-nitropyridin-2-yl)-(2-chloro-5-nitrophenyl)carboxamide] | – | 120% | activity at 0.1 µM ([1]; 0.1 μM test substance): 85.5% |
| O=C(Nc1nc2ccc(F)cc2s1)c1cc([N+](=O)[O-])ccc1Cl [Example 70, N-(6-Fluorobenzothiazol-2-yl)-(2-chloro-5-nitrophenyl)carboxamide] | 70.2% | 122% | – |
| O=C(Nc1ncccc1[N+](=O)[O-])c1cc([N+](=O)[O-])ccc1Cl [Example 80, N-(3-Nitropyridin-2-yl)-(2-chloro-5-nitrophenyl)carboxamide] | – | 118% | activity at 0.1 µM ([1]; 0.1 μM test substance): 83.3% |
| O=C(Nc1ccc(N2CCOCC2)cc1)c1cc([N+](=O)[O-])ccc1Cl [Example 113, N-[4-(Morpholin-4-yl)phenyl]-(2-chloro-5-nitrophenyl)carboxamide] | 84.6% | 111% | – |
| O=C(O)c1cccc(NC(=O)c2cc([N+](=O)[O-])ccc2Cl)c1 [Example 145, 3-(2-Chloro-5-nitrobenzoylamino)benzoic Acid] | 87.6% | 141% | – |
| O=C(Nc1cccnc1)c1ccc(NC(=O)c2cc([N+](=O)[O-])ccc2Cl)cc1 [Example 148, N-[4-(Pyridin-3-ylaminocarbonyl)phenyl]-(2-chloro-5-nitrophenyl)carboxamide] | 75.3% | 119% | – |
| O=C(Nc1ccc(C(=O)N2CCCC2)cc1)c1cc([N+](=O)[O-])ccc1Cl [Example 160, N-[4-(Pyrrolidinylcarbonyl)phenyl]-(2-chloro-5-nitrophenyl)carboxamide] | – | 128% | IC50 [3]: 0.11 µM |
| CN1CCN(C(=O)c2ccc(NC(=O)c3cc([N+](=O)[O-])ccc3Cl)cc2)CC1 [Example 164, N-[4-(4-Methylpiperazin-1-ylcarbonyl)phenyl]-(2-chloro-5-nitrophenyl)carboxamide] | – | 125% | IC50 [3]: 0.0006 µM |
| N-(5-Bromo-3-nitropyridin-2-yl)-(−2-chloro-5-nitrophenyl-carboxamide [Example 84] | – | – | Rate of Uptake (%) of [2-14C] acetic acid ([1]; 0.1 μM test substance): 59.5%; Rate of Differentiation (%) [2]: 151.4% |
